Source: PubChem BioAssay AID1013 (Columbia University Molecular Screening Center, 2008)
Calls of active or inactive are those of the source. The rule behind the calls is not given here.

Experiment: inhibitors of TNFa-induced VCAM1 expression, confirmation, imaging, TNFa stimulus, retest and dose response (AID 1013);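 for cell count: compound on cells 1 h before TNFa then 24 h more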
Conditions: TNFa-stimulated cells, VCAM1 expression imaging; for inhibition: at 2 µM, stronger effect = higher value; for cell count: at 10 µM, stronger effect = lower value

Row | Structure (SMILES) | inhibition | cell count [%]
1 | CC/C(=N\NC(=O)CNC(=O)/C=C/c1ccco1)c1ccccc1 | -3.4% (inactive) | 
2 | CC(=O)c1cccc(NC(=O)c2cc(-c3ccc(F)cc3)on2)c1 | -10.4% (inactive) | 
3 | CCCn1nc([N+](=O)[O-])c(C(C#N)c2nc3ccccc3s2)c(Cl)c1=O (configuration not stated) | 18.2% (inactive) | 
4 | O=C1CC(N2CCN(Cc3ccc4c(c3)OCO4)CC2)C(=O)N1c1ccccc1 (configuration not stated) | -11.2% (inactive) | 
5 | Cc1cc(NC(=O)NC(=O)c2cccc(OC(F)(F)C(F)F)c2)n[nH]1 | 3.8% (inactive) | 
6 | CN(C)c1nc(N(C)C)nc(N(C#N)CCOc2ccccc2)n1 | -3.1% (inactive) | 
7 | COc1ccc(-c2cc3ccc(OCc4nn[nH]n4)cc3oc2=O)cc1OC | -18.3% (inactive) | 
8 | CCOC(=O)C1=C(CSc2nc3c(cc2C#N)CN(C)CC3)OC(N)=C(C#N)C1c1ccccc1 (configuration not stated) | -5.4% (inactive) | 
9 | CCn1c(SCC(=O)Nc2cc(C)on2)nnc1-c1ccccc1 | -7.4% (inactive) | 
10 | CCOc1ccc(C2/C(=C(\O)c3c(C)[nH]c(C(=O)OC)c3C)C(=O)C(=O)N2CCN(C)C)cc1 (configuration not stated) | -5.6% (inactive) | 
11 | O=C1C(Cc2ccccc2)NC(=S)N1c1ccccc1 (configuration not stated) | 9.6% (inactive) | 
12 | N#Cc1c(NCc2ccccc2)ccnc1NCc1cccnc1 | -17.4% (inactive) | 
13 | Cn1nc(C(=O)NCC2CCCO2)c2ccccc2c1=O (configuration not stated) | -9% (inactive) | 
14 | CN1C(=O)C2(NCCc3c2[nH]c2ccccc32)c2ccccc21 (configuration not stated) | -19.9% (inactive) | 
15 | CCC(=O)Nc1cccc(NC(=O)c2cc3ccccc3o2)c1 | -3.1% (inactive) | 
16 | COc1ccc(-c2cc(C(F)(F)F)nc(S(=O)(=O)CCC(=O)N3CCOCC3)n2)cc1 | 20.8% (inactive) | 
17 | CC(C)NC1CS(=O)(=O)CC1O (configuration not stated) | -13.7% (inactive) | 
18 | CC(=O)Nc1ccc(NC2(C)C(=O)c3ccccc3C2=O)cc1 | -3.5% (inactive) | 
19 | C=C(C)c1cccc(C(C)(C)NC(=O)Nc2ncccn2)c1 | -2.7% (inactive) | 
20 | COc1cccc(CSc2nc3ccccc3cc2C=O)c1 | 43.3% (inactive) | 91.7
21 | CS(=O)(=O)N(CC(=O)NCc1ccccc1Cl)Cc1ccccc1 | -0.5% (inactive) | 
22 | O=C(CS(=O)(=O)c1cn(Cc2cccc(F)c2)c2ccccc12)N1CCCCC1 | -4.4% (inactive) | 
23 | O=C(O)c1ccccc1Nc1ccccc1C(=O)O | 0.6% (inactive) | 
24 | COc1ccc(S(=O)(=O)N2CCCC2C(=O)Nc2ccc(C)cc2)cc1 (configuration not stated) | -4% (inactive) | 
25 | Cc1cc(OCc2ccc(F)cc2)nc(-c2ccccc2O)n1 | -12.1% (inactive) | 

Row | Structure (SMILES) | inhibition | cell count [%]
26 | CCn1c(SCC(=O)Nc2ccc(C(=O)OC)cc2)nnc1-c1cccs1 | 10.1% (inactive) | 
27 | O=C(CCCCCN1C(=O)c2ccccc2C1=O)Nc1nccs1 | -4.8% (inactive) | 
28 | S=c1[nH]nc(COc2ccc3c(c2)OCO3)n1-c1ccccc1 | 1% (inactive) | 
29 | O=C(NCCO)C(c1ccccc1)c1ccccc1 | -14.4% (inactive) | 
30 | Cc1cccc(C(=O)Oc2ccccc2C2C[C@]3(C)CC(=O)NC3N2C(=O)c2cccc(C)c2)c1 (some centres not stated) | -2.5% (inactive) | 
31 | COc1ccc(OC)c(C2CC(=O)c3c([nH]c(C(=O)OC(C)C)c3C)C2)c1 (configuration not stated) | 35.5% (inactive) | 
32 | Cc1ccc(S(=O)(=O)Cn2nnnc2C(C(C)C)N2CCN(c3nc4ccccc4s3)CC2)cc1 (configuration not stated) | -0.6% (inactive) | 
33 | C=CCc1ccccc1OCC(O)CNC (configuration not stated) | 5.5% (inactive) | 
34 | O=C(NC1CC1)c1ccc(S(=O)(=O)NCC2CCCCC2)cc1 | 7.4% (inactive) | 
35 | O=C(CN1CCSCC1)N1CCc2[nH]c3ccc(Br)cc3c2C1 | -11.1% (inactive) | 
36 | CCNCC(O)COCC(O)CNCC (configuration not stated) | 1.3% (inactive) | 
37 | CN=c1sc2ccccc2n1CC(O)COc1ccccc1 (configuration not stated) | -13.2% (inactive) | 
38 | C=CCNC(=O)c1nn2cccnc2c1Cl | 3.3% (inactive) | 
39 | CCN(CC)C(=O)CN(c1ccc(Cl)cc1)S(=O)(=O)c1ccccc1 | -3.1% (inactive) | 
40 | O=C(c1ccc2c(c1)ncn2C1CCCCC1)N1CCC2(CC1)OCCO2 | 4.9% (inactive) | 
41 | C=CCn1c(SCC(=O)Nc2ccc(C(=O)OCC)cc2)nnc1-c1sc(N)nc1C | 9.5% (inactive) | 
42 | CCCOC(=O)c1ccc(NC(=O)Oc2ccccc2)cc1 | -2.5% (inactive) | 
43 | C=CCn1c(N2CCCC2)nc2c1c(=O)[nH]c(=O)n2C | 7.9% (inactive) | 
44 | CCOc1ccccc1N1CCN(C(=O)c2cccc(-c3ccc(O)cc3)c2)CC1 | -6.4% (inactive) | 
45 | N#Cc1cc2c(nc1SCC(=O)N1CCCCC1)CCCC2 | -5.8% (inactive) | 
46 | CCOC(=O)c1ccc(NC(=O)CCNc2c(N3CCCC3)c(=O)c2=O)cc1 | -10.3% (inactive) | 
47 | CCN1CCC2(CC1)C(C#N)=C(N)Oc1c2sc2nc(C)cc(C)c12 | -4.5% (inactive) | 
48 | Nc1nnc(SCC(=O)NCc2ccc3c(c2)OCO3)s1 | 0.2% (inactive) | 
49 | CN(Cc1ccccc1)S(=O)(=O)c1ccc(NC(=S)NC(=O)C2CCCC2)cc1 | 17.2% (inactive) | 
50 | O=C(O)Cc1ccc(NC(=O)C2CC=CCC2C(=O)O)cc1 (configuration not stated) | 4.4% (inactive) | 

Row | Structure (SMILES) | inhibition | cell count [%]
51 | C=CCOC(=O)C1=C(C)OC(N)=C(C#N)C12C(=O)N(CN1CCOCC1)c1ccccc12 (configuration not stated) | -12.1% (inactive) | 
52 | COC(=O)c1cccc(S(=O)(=O)N(Cc2ccco2)Cc2cc3ccc(OC)cc3[nH]c2=O)c1 | -3.6% (inactive) | 
53 | O=C1Nc2ccc(S(=O)(=O)N3CCOCC3)c3cccc1c23 | -7.2% (inactive) | 
54 | CCCOC(=O)CSC1=C(C#N)C(c2ccccc2OC)C(C#N)C(=O)N1 (configuration not stated) | -11.7% (inactive) | 
55 | O=C1CC(N2CCN(Cc3ccc4c(c3)OCO4)CC2)C(=O)N1Cc1ccc(N2CCCC2=O)cc1 (configuration not stated) | -5.2% (inactive) | 
56 | O=C(c1cc(-c2ccncc2)nc2ccc(Br)cc12)N1CCN(c2ccccn2)CC1 | 1.3% (inactive) | 
57 | COc1ccc(/C=N/NC(=O)c2ccccc2Cl)cc1CSc1nc2ccccc2s1 | 13.7% (inactive) | 
58 | O=S(=O)(c1cccc(-n2cnnn2)c1)N1CCOCC1 | -4.6% (inactive) | 
59 | Cc1ccc(C(=O)CSc2nnc(COc3ccc(C#N)cc3)n2-c2ccccc2)cc1 | -0.7% (inactive) | 
60 | Cc1ccc(OCc2ccoc2C(=O)O)cc1C | 2.2% (inactive) | 
61 | O=C(CN1CCC(c2nc3ccccc3s2)CC1)NCc1cccs1 | -3.1% (inactive) | 
62 | Cn1c(SCC(=O)NC2CCCCC2)nnc1-c1cccc(N)c1 | 4.3% (inactive) | 
63 | O=C(Cn1ncc2c(=O)oc3ccccc3c21)NCCC1=CCCCC1 | -1.9% (inactive) | 
64 | Cc1ccc(-n2nc3ccc(NC(=O)/C=C/c4ccco4)cc3n2)cc1C | 14% (inactive) | 
65 | Cc1ccc(C)c(NC(=S)NC(NC(=O)Cc2cccc3ccccc23)C(Cl)(Cl)Cl)c1 (configuration not stated) | 75.3% (inactive) | 99.3
66 | COc1ccc(CC(=O)OCc2cc3ccc(C)cc3[nH]c2=O)cc1 | 6.4% (inactive) | 
67 | N/C(Cc1cccs1)=N\OC(=O)COc1ccc(Br)cc1Cl | 8.2% (inactive) | 
68 | CCOC(=O)c1cnc(-n2nc(C)cc2C)nc1NCc1ccccc1 | 7.9% (inactive) | 
69 | COc1ccc(C(c2sc3ncnn3c2O)N2CC(C)OC(C)C2)cc1OC (configuration not stated) | 14.8% (inactive) | 
70 | COc1ccccc1-c1cn(S(=O)(=O)c2ccc(C)cc2)nc1N | 2.2% (inactive) | 
71 | CCCCN(C(=O)NC(=O)Nc1cccc(C)c1C)S(C)(=O)=O | 9.3% (inactive) | 
72 | NC(=O)COC(=O)CCCc1c[nH]c2ccccc12 | 0.5% (inactive) | 
73 | CC(C)(CO)NC(=O)CCCOc1ccc(Cl)cc1Cl | -18.9% (inactive) | 
74 | Cn1c(CNc2ccccc2O)nc2ccccc21 | 11.9% (inactive) | 
75 | O=[N+]([O-])c1ccc(/C=N/n2c(COc3ccccc3)n[nH]c2=S)cc1 | -9.2% (inactive) | 

Row | Structure (SMILES) | inhibition | cell count [%]
76 | CC(C)Sc1nc2c(c(=O)n1-c1ccc(F)cc1)SCC2 | 7.4% (inactive) | 
77 | NC1=CC(=O)c2cccc3cccc1c23 | 6.1% (inactive) | 
78 | CC(C)C(=O)N1CCN(c2nc(-c3ccccc3)c3c(c2C#N)CC(C)(C)OC3)CC1 | 5.1% (inactive) | 
79 | C[n+]1ccc(/C=C/c2ccc(Br)cc2)cc1 | 13.1% (inactive) | 
80 | CCOC(=O)N1CCC(NC(=O)c2ccc(CS(=O)(=O)c3ccc(OC)cc3)o2)CC1 | -7.8% (inactive) | 
81 | COc1ccc(C(C)(C)C)cc1S(=O)(=O)N1CCN(C)CC1 | -3.3% (inactive) | 
82 | Cc1cc(C)n(-c2nc(-c3cccc(Cl)c3)cs2)n1 | 2.2% (inactive) | 
83 | CSC1=NCCN1C(=O)Cc1ccc(Cl)cc1 | -11.8% (inactive) | 
84 | COc1ccc(CN2C(=O)[C@@H]3C(c4ccc(F)cc4)=NO[C@@H]3C2=O)cc1 | -6.1% (inactive) | 
85 | CCOC1=NC(C(=O)O)c2ccccc2/C(=C(/C)Cl)N1 (configuration not stated) | 7.8% (inactive) | 
86 | Cc1oc2cc3c(C(=O)N4CCCCC4)c(C)oc3cc2c1C(=O)N1CCCCC1 | 4.7% (inactive) | 
87 | CCOc1ccc(C(=O)C(c2ccccc2)N2CCOCC2)cc1 (configuration not stated) | -17.7% (inactive) | 
88 | Cc1ccc(Nc2nc(CSc3nnnn3C)cs2)cc1 | -5.5% (inactive) | 
89 | COc1ccc2[nH]c(=O)c(CN(C(=O)c3ccncc3)C(C)C)cc2c1 | -5.2% (inactive) | 
90 | O=c1ccc(Oc2nc(N3CCOCC3)nc(N3CCOCC3)n2)nn1-c1ccccc1 | 9% (inactive) | 
91 | CC(N)Cc1ccccc1Sc1ccc(O)cc1 (configuration not stated) | -14.6% (inactive) | 
92 | CCOC(=O)c1ccc(-n2c(=S)sc3c(=O)[nH]c(C)nc32)cc1 | -10.7% (inactive) | 
93 | COc1cc(NC(=O)c2ccc(COCC(F)(F)F)o2)cc(OC)c1OC | 20.7% (inactive) | 
94 | CCCc1cc(=O)[nH]c(SCC(=O)Nc2nonc2N)n1 | 9.8% (inactive) | 
95 | Cn1cc([N+](=O)[O-])c(C(=O)Nc2ccc3c(c2)OCCO3)n1 | 10.7% (inactive) | 
96 | Cc1nnc(SCc2cn3ccsc3n2)n(N)c1=O | -9.6% (inactive) | 
97 | COC(=O)CSc1nc2nc(C)c(Br)cc2[nH]1 | -12.6% (inactive) | 
98 | CCCc1sc(N/N=C/c2ccccn2)nc1-c1ccc(Br)cc1 | 7.8% (inactive) | 
99 | Cc1ccc(-c2nc(NC(=O)c3nn(C)cc3[N+](=O)[O-])sc2C)cc1 | 91.2% (inactive) | 113
